Test results published in patent US8124780B2, “Benzimidazole compound” (priority 2005, dated 2012).
Structures can show the parent of a compound that is named as a salt. Where two headings read alike, the source gives them in different places.

Test system: gastric acid secretion
Assay: animal or person
Format: in vivo, dog
Conditions: for inhibition in vivo at 0.4 mg/kg / inhibition in vivo at 0.8 mg/kg / inhibition in vivo at 0.2 mg/kg / inhibition in vivo at 1.6 mg/kg / inhibition in vivo at 0.1 mg/kg: Canis lupus familiaris; for inhibition in vivo at 0.1 mg/kg: dose 0.1 mg/kg i.d.
[1] = iv, 24 h, read-out: Persistency of inhibitory effect against gastric acid secretion (%)
[2] = iv, read-out: Inhibitory effect against gastric acid secretion (%)
[3] = dose 0.4 mg/kg i.d., first day, 1 h 40 min to 2 h after administration, histamine i.v., 0.4 mg/kg
[4] = dose 0.4 mg/kg i.d., second day, 24 hours after administration, histamine i.v., 0.4 mg/kg

Compound: Cc1c(OCC2OCC(C)(C)CO2)ccnc1C[S+]([O-])c1nc2ccccc2[nH]1 (stereo not drawn) [Example 1, 2-(((4-((5,5-dimethyl-1,3-dioxan-2-yl)methoxy)-3-methylpyridin-2-yl)methyl)sulfinyl)-1H-benzimidazole sodium salt]
- inhibition in vivo at 0.4 mg/kg [1]: 76%
- inhibition in vivo at 0.8 mg/kg [1]: 90%
- inhibition in vivo at 0.4 mg/kg [2]: 94%
- inhibition in vivo at 0.8 mg/kg [2]: 100%

Compound: Cc1c(OCC2OCC3(CC3)CO2)ccnc1C[S+]([O-])c1nc2ccccc2[nH]1 (stereo not drawn) [Example 2, 2-(((4-(5,7-dioxaspiro[2.5]oct-6-ylmethoxy)-3-methylpyridin-2-yl)methyl)sulfinyl)-1H-benzimidazole sodium salt]
- inhibition in vivo at 0.2 mg/kg [1]: 52%
- inhibition in vivo at 0.4 mg/kg [1]: 90%
- inhibition in vivo at 0.8 mg/kg [1]: 96%
- inhibition in vivo at 0.2 mg/kg [2]: 83%
- inhibition in vivo at 0.4 mg/kg [2]: 100%
- inhibition in vivo at 0.8 mg/kg [2]: 100%

Compound: CCCC1(CCOc2ccnc(C[S+]([O-])c3nc4ccccc4[nH]3)c2C)OCCO1 (stereo not drawn) [Example 3, 2-(((3-methyl-4-(2-(2-propyl-1,3-dioxolan-2-yl)ethoxy)pyridin-2-yl)methyl)sulfinyl)-1H-benzimidazole sodium salt]
- inhibition in vivo at 0.8 mg/kg [1]: 86%
- inhibition in vivo at 0.8 mg/kg [2]: 100%

Compound: CCC1(CCOc2ccnc(C[S+]([O-])c3nc4ccccc4[nH]3)c2C)OCC2(CO1)OCCO2 (stereo not drawn) [Example 4, 2-(((4-(2-(8-ethyl-1,4,7,9-tetraoxaspiro[4.5]dec-8-yl)ethoxy)-3-methylpyridin-2-yl)methyl)sulfinyl)-1H-benzimidazole sodium salt]
- inhibition in vivo at 0.8 mg/kg [1]: 93%
- inhibition in vivo at 0.8 mg/kg [2]: 100%

Compound: Cc1c(OCC2(C)OCC3(CO2)OCCO3)ccnc1C[S+]([O-])c1nc2ccccc2[nH]1 (stereo not drawn) [Example 5, 2-(((3-methyl-4-((8-methyl-1,4,7,9-tetraoxaspiro[4.5]dec-8-yl)methoxy)pyridin-2-yl)methyl)sulfinyl)-1H-benzimidazole sodium salt]
- inhibition in vivo at 0.4 mg/kg [1]: 61%
- inhibition in vivo at 0.8 mg/kg [1]: 89%
- inhibition in vivo at 0.4 mg/kg [2]: 54%
- inhibition in vivo at 0.8 mg/kg [2]: 100%

Compound: COC1OCC(COc2ccnc(C[S+]([O-])c3nc4ccccc4[nH]3)c2C)CO1 (stereo not drawn) [Example 6, 2-(((4-((2-methoxy-1,3-dioxan-5-yl)methoxy)-3-methylpyridin-2-yl)methyl)sulfinyl)-1H-benzimidazole sodium salt]
- inhibition in vivo at 0.8 mg/kg [1]: 89%
- inhibition in vivo at 0.8 mg/kg [2]: 100%

Compound: Cc1c(OCC2COC(CF)(CF)OC2)ccnc1C[S+]([O-])c1nc2ccccc2[nH]1 (stereo not drawn) [Example 7, 2-(((4-((2,2-bis(fluoromethyl)-1,3-dioxan-5-yl)methoxy)-3-methylpyridin-2-yl)methyl)sulfinyl)-1H-benzimidazole sodium salt]
- inhibition in vivo at 0.8 mg/kg [1]: 90%
- inhibition in vivo at 0.8 mg/kg [2]: 99%

Compound: CCCC1(CCOc2ccnc(C[S+]([O-])c3nc4ccccc4[nH]3)c2C)OCCCO1 (stereo not drawn) [Example 8, 2-(((3-methyl-4-(2-(2-propyl-1,3-dioxan-2-yl)ethoxy)pyridin-2-yl)methyl)sulfinyl)-1H-benzimidazole sodium salt]
- inhibition in vivo at 0.8 mg/kg [1]: 88%
- inhibition in vivo at 0.8 mg/kg [2]: 100%

Compound: Cc1c(OC2COC3(CCC3)OC2)ccnc1C[S+]([O-])c1nc2ccccc2[nH]1 (stereo not drawn) [Example 9, 2-(((4-(5,9-dioxaspiro[3.5]non-7-yloxy)-3-methylpyridin-2-yl)methyl)sulfinyl)-1H-benzimidazole sodium salt]
- inhibition in vivo at 0.8 mg/kg [1]: 90%
- inhibition in vivo at 0.8 mg/kg [2]: 100%

Compound: Cc1c(OCC2COC3(CCOCC3)OC2)ccnc1C[S+]([O-])c1nc2ccccc2[nH]1 (stereo not drawn) [Example 10, 2-(((3-methyl-4-(1,5,9-trioxaspiro[5.5]undec-3-ylmethoxy)pyridin-2-yl)methyl)sulfinyl)-1H-benzimidazole sodium salt]
- inhibition in vivo at 0.8 mg/kg [1]: 90%
- inhibition in vivo at 1.6 mg/kg [1]: 87%
- inhibition in vivo at 0.8 mg/kg [2]: 98%
- inhibition in vivo at 1.6 mg/kg [2]: 100%

Compound: Cc1cnc(C[S+]([O-])c2nc3ccccc3[nH]2)c(C)c1OCC1COC(C)(C)OC1 (stereo not drawn) [Example 11, 2-(((4-((2,2-dimethyl-1,3-dioxan-5-yl)methoxy)-3,5-dimethylpyridin-2-yl)methyl)sulfinyl)-1H-benzimidazole sodium salt]
- inhibition in vivo at 0.4 mg/kg [1]: 65%
- inhibition in vivo at 0.8 mg/kg [1]: 89%
- inhibition in vivo at 0.4 mg/kg [2]: 79%
- inhibition in vivo at 0.8 mg/kg [2]: 100%

Compound: Cc1c(OCC2COC(C)(C)OC2)ccnc1C[S+]([O-])c1nc2ccccc2[nH]1 (stereo not drawn) [Example 12, 2-(((4-((2,2-dimethyl-1,3-dioxan-5-yl)methoxy)-3-methylpyridin-2-yl)methyl)sulfinyl)-1H-benzimidazole sodium salt]
- inhibition in vivo at 0.8 mg/kg [1]: 86%
- inhibition in vivo at 0.8 mg/kg [2]: 100%

Compound: Cc1cnc(C[S+]([O-])c2nc3ccccc3[nH]2)c(C)c1OCC1COC2(CCC2)OC1 (stereo not drawn) [Example 13, 2-(((4-(5,9-dioxaspiro[3.5]non-7-ylmethoxy)-3,5-dimethylpyridin-2-yl)methyl)sulfinyl)-1H-benzimidazole sodium salt]
- inhibition in vivo at 0.8 mg/kg [1]: 74%
- inhibition in vivo at 0.8 mg/kg [2]: 100%

Compound: Cc1cnc(C[S+]([O-])c2nc3ccccc3[n-]2)c(C)c1OCC1COC(C)(C)OC1.[Na+] (stereo not drawn) [Example 19, Sodium salt of an optical isomer (long in retention time) of 2-(((4-((2,2-dimethyl-1,3-dioxan-5-yl)methoxy)-3,5-dimethylpyridin-2-yl)methyl)sulfinyl)-1H-benzimidazole]
- inhibition in vivo at 0.8 mg/kg (i.d., dose 0.8 mg/kg i.d., first day, 1 h 40 min to 2 h after administration, histamine i.v., read-out: Inhibitory effect against gastric acid secretion (%)): 82%
- Inhibitory effect against gastric acid secretion (%) [3]: 13%
- Persistency of inhibitory effect against gastric acid secretion (%) [4]: −4%
- Persistency of inhibitory effect against gastric acid secretion (%) (dose 0.8 mg/kg i.d., second day, 24 hours after administration, histamine i.v.): 56%

Compound: Cc1cnc(C[S+]([O-])c2nc3ccccc3[n-]2)c(C)c1OCC1COC(C)(C)OC1.[Na+] (stereo not drawn) [Example 20, Sodium salt of an optical isomer (short in retention time) of 2-(((4-(2,2-dimethyl-1,3-dioxan-5-yl)methoxy-3,5-dimethylpyridin-2-yl)methyl)sulfinyl)-1H-benzimidazole]
- inhibition in vivo at 0.1 mg/kg (i.d., 24 h, second day, 24 hours after administration, histamine i.v., read-out: Persistency of inhibitory effect against gastric acid secretion (%)): 6%
- inhibition in vivo at 0.2 mg/kg (i.d., 24 h, dose 0.2 mg/kg i.d., second day, 24 hours after administration, histamine i.v., read-out: Persistency of inhibitory effect against gastric acid secretion (%)): 46%
- inhibition in vivo at 0.1 mg/kg (i.d., first day, 1 h 40 min to 2 h after administration, histamine i.v., read-out: Inhibitory effect against gastric acid secretion (%)): 8%
- inhibition in vivo at 0.2 mg/kg (i.d., dose 0.2 mg/kg i.d., first day, 1 h 40 min to 2 h after administration, histamine i.v., read-out: Inhibitory effect against gastric acid secretion (%)): 65%
- Inhibitory effect against gastric acid secretion (%) [3]: 97%
- Persistency of inhibitory effect against gastric acid secretion (%) [4]: 77%
- Inhibitory effect against gastric acid secretion (%) (dose 0.8 mg/kg i.d., first day, 1 h 40 min to 2 h after administration, histamine i.v., 0.8 mg/kg): 100%
- Persistency of inhibitory effect against gastric acid secretion (%) (dose 0.8 mg/kg i.d., second day, 24 hours after administration, histamine i.v., 0.8 mg/kg): 89%

Compound: Cc1c(OCC2COC3(CCCC3)OC2)ccnc1C[S+]([O-])c1nc2ccccc2[nH]1 (stereo not drawn) [Example 21, 2-(((4-(6,10-dioxaspiro[4.5]dec-8-ylmethoxy)-3-methylpyridin-2-yl)methyl)sulfinyl)-1H-benzimidazole sodium salt]
- inhibition in vivo at 1.6 mg/kg [1]: 94%
- inhibition in vivo at 1.6 mg/kg [2]: 100%

Compound: Cc1c(OCC2COC3(CCC3)OC2)ccnc1C[S+]([O-])c1nc2ccccc2[nH]1 (stereo not drawn) [Example 22, 2-(((4-(5,9-dioxaspiro[3.5]non-7-ylmethoxy)-3-methylpyridin-2-yl)methyl)sulfinyl)-1H-benzimidazole sodium salt]
- inhibition in vivo at 1.6 mg/kg [1]: 97%
- inhibition in vivo at 1.6 mg/kg [2]: 100%

Compound: CCC1(CC)OCC(COc2ccnc(C[S+]([O-])c3nc4ccccc4[nH]3)c2C)CO1 (stereo not drawn) [Example 23, 2-(((4-((2,2-diethyl-1,3-dioxan-5-yl)methoxy)-3-methylpyridin-2-yl)methyl)sulfinyl)-1H-benzimidazole sodium salt]
- inhibition in vivo at 1.6 mg/kg [1]: 92%
- inhibition in vivo at 1.6 mg/kg [2]: 100%

Compound: Cc1c(OCC23COC(C)(OC2)OC3)ccnc1C[S+]([O-])c1nc2ccccc2[n-]1.[Na+] (stereo not drawn) [Example 24, 2-(((3-methyl-4-((1-methyl-2,6,7-trioxabicyclo[2.2.2]oct-4-yl)methoxy)pyridin-2-yl)methyl)sulfinyl)-1H-benzimidazole sodium salt]
- Inhibitory effect against gastric acid secretion (%) (dog, in vivo, iv, 1.6 mg/kg): 88%
- Persistency of inhibitory effect against gastric acid secretion (%) (dog, in vivo, iv, 1.6 mg/kg): 80%

Compound: Cc1c(OC2COC(C)(C)OC2)ccnc1C[S+]([O-])c1nc2ccccc2[nH]1 (stereo not drawn) [Example 26, 2-(((4-((2,2-dimethyl-1,3-dioxan-5-yl)oxy)-3-methylpyridin-2-yl)methyl)sulfinyl)-1H-benzimidazole sodium salt]
- inhibition in vivo at 1.6 mg/kg [1]: 80%
- inhibition in vivo at 1.6 mg/kg [2]: 100%

Compound: Cc1c(OC2CCC3(CC2)OCCO3)ccnc1C[S+]([O-])c1nc2ccccc2[nH]1 (stereo not drawn) [Example 27, 2-(((4-(1,4-dioxaspiro[4.5]dec-8-yloxy)-3-methylpyridin-2-yl)methyl)sulfinyl)-1H-benzimidazole sodium salt]
- inhibition in vivo at 1.6 mg/kg [1]: 92%
- inhibition in vivo at 1.6 mg/kg [2]: 100%

Compound: Cc1c(OCCC2COC(C)(C)OC2)ccnc1C[S+]([O-])c1nc2ccccc2[nH]1 (stereo not drawn) [Example 28, 2-(((4-(2-(2,2-dimethyl-1,3-dioxan-5-yl)ethoxy)-3-methylpyridin-2-yl)methyl)sulfinyl)-1H-benzimidazole sodium salt]
- inhibition in vivo at 1.6 mg/kg [1]: 77%
- inhibition in vivo at 1.6 mg/kg [2]: 94%

Compound: CCC12OCC(COc3ccnc(C[S+]([O-])c4nc5ccccc5[n-]4)c3C)(CO1)CO2.[Na+] (stereo not drawn) [Example 29, 2-(((4-((1-ethyl-2,6,7-trioxabicyclo[2.2.2]oct-4-yl)methoxy)-3-methylpyridin-2-yl)methyl)sulfinyl)-1H-benzimidazole sodium salt]
- Inhibitory effect against gastric acid secretion (%) (dog, in vivo, iv, 1.6 mg/kg): 100%
- Persistency of inhibitory effect against gastric acid secretion (%) (dog, in vivo, iv, 1.6 mg/kg): 87%
